Reference: US11044908B2, “Reactive antibacterial compound and preparation method thereof” (SHENZHEN UNIVERSITY, priority 2015, dated 2021)
≈ marks a conversion by molar mass, not a printed value.

Tests used:
Type in all cases: cell-based
[1] = system: E. coli; experiment: Durable antibacterial activity of glass surfaces modified by antibacterial agents (plate/colony counting method)
[2] = system: S. aureas; experiment: as above
[3] = system: S. aureas (ATCC 6538); experiment: Minimum inhibitory concentration (MIC) test; details: 24 h culture
Protocol: (§1) The minimum inhibitory concentration (MIC) is the lowest concentration of antibacterial agents that can inhibit the visible growth of bacteria after 24 h culture in a specific environment. Methods for determining the minimum inhibitory concentration can be a constant broth dilution method, a trace broth dilution method, an agar dilution method or an E experiment.

[4] = system: E. coli (American Type Culture Collection ATCC 25922); experiment: Minimum inhibitory concentration (MIC) test; details: E. coli ATCC 25922; 24 h culture
Protocol: as §1

SMILES | Antibacterial activity of modified glass surface (plate counting method) ([1]; wash number 0) | Antibacterial activity of modified glass surface (plate counting method) ([1]; wash number 10) | Antibacterial activity of modified glass surface (plate counting method) ([1]; wash number 50) | Antibacterial activity of modified glass surface (plate counting method) ([1]; wash number 100) | Antibacterial activity of modified glass surface (plate counting method) ([2]; wash number 0) | Antibacterial activity of modified glass surface (plate counting method) ([2]; wash number 10) | Antibacterial activity of modified glass surface (plate counting method) ([2]; wash number 50) | Antibacterial activity of modified glass surface (plate counting method) ([2]; wash number 100) | Minimum inhibitory concentration (MIC) [3] | Minimum inhibitory concentration (MIC) [4]
CC[N+](CC)(CCCS(=O)(=O)[O-])CCOC(=O)Nc1ccc(Cc2ccc(N=C=O)cc2)cc1 [Example 2] | 99.99% | 99.9% | 97.3% | 95.9% | 99.99% | 99.9% | 98.9% | 96.6% | 10 µmol/mL (≈ 4900 µg/mL) | 12 µmol/mL (≈ 5880 µg/mL)
C[N+](C)(CCOC(=O)NCCCCCCN=C=O)CC(=O)[O-] [Example 3] | 99.99% | 99.8% | 98.5% | 96.5% | 99.99% | 99.9% | 99.0% | 97.2% | 8 µmol/mL (≈ 2520 µg/mL) | 11 µmol/mL (≈ 3470 µg/mL)
C[N+](C)(CCCS(=O)(=O)[O-])CCNC(=O)NC1CCC(CC2CCC(N=C=O)CC2)CC1 (stereo not drawn) [Example 5] | 99.99% | 99.7% | 99.0% | 96.5% | 99.99% | 99.9% | 99.5% | 98.5% | 7 µmol/mL (≈ 3310 µg/mL) | 10 µmol/mL (≈ 4730 µg/mL)
Cc1cc(NC(=O)NC2CC(C)(C)CC(C)(CN=C=O)C2)cc(C)[n+]1CCCS(=O)(=O)[O-] (stereo not drawn) [Example 9] | 99.99% | 99.8% | 97.1% | 94.3% | 99.99% | 99.9% | 98.5% | 95.2% | 8 µmol/mL (≈ 3730 µg/mL) | 10 µmol/mL (≈ 4670 µg/mL)
CC1(C)CC(NC(=O)OCC[N+](C)(C)CCS(=O)(=O)[O-])CC(C)(CN=C=O)C1 (stereo not drawn) [Example 10] | 99.99% | 99.8% | 97.5% | 94.1% | 99.99% | 99.9% | 98.9% | 95.3% | 9 µmol/mL (≈ 3780 µg/mL) | 12 µmol/mL (≈ 5030 µg/mL)
CC1(C)CC(NC(=O)OCC[N+](C)(C)CCCC(=O)[O-])CC(C)(CN=C=O)C1 (stereo not drawn) [Example 11] | 99.99% | 99.8% | 97.1% | 94.5% | 99.99% | 99.9% | 98.3% | 95.8% | 8 µmol/mL (≈ 3180 µg/mL) | 10 µmol/mL (≈ 3980 µg/mL)
